Measured values as given in US20070093520A1, “Method of treatment of diarrhea-predominant irritable bowel syndrome in a subject” (priority 2005, published 2007).

Tested on: diarrhea-predominant IBS subjects
Assay: 3007 Study: open-label 52-week safety study, adverse events and withdrawals
Conditions: C/C group

Cc1nccn1C[C@H]1CCc2c(c3cccc4c3n2CCC4)C1=O [cilansetron, (R)-(−)-4,5,6,8,9,10-hexahydro-10-[(2-methyl-1H-imidazol-1-yl)methyl]-11H-pyrido-[3,2,1-jk]-carbazol-11-one]
13 (5%) n (%): TEAE: Renal and Urinary Disorders | TEAE: Vascular Disorders
2 (2%) n (%): TEAE: Prostate and Seminal Vesicles Infections and Inflammations* | TEAE: Prostatitis*
2 (<1%) n (%): TEAE: Labyrinthitis NOS | TEAE: Lacrimal Disorders | TEAE: Laryngeal and Adjacent Sites Disorders NEC (Excl Infections and Neoplasms) | TEAE: Laryngitis NOS | TEAE: Leukopenia NOS | TEAE: Leukopenias NEC | TEAE: Lipoma NOS | TEAE: Pain NOS | TEAE: Palpitations | TEAE: Peripheral Vascular Disorders NEC | TEAE: Purine Metabolism Disorders NEC | TEAE: Pyrexia | TEAE: Rate and Rhythm Disorders NEC | TEAE: Skin Neoplasms Malignant and Unspecified (Excl Melanoma) | TEAE: Urinary Frequency | TEAE: Varicose Vein Ruptured | TEAE: Varicose Veins Non-Site Specific
6 (2%) n (%): TEAE: Paranasal Sinus Disorders (Excl Infections and Neoplasms)
11 (4%) n (%): TEAE: Metabolism and Nutrition Disorders
4 (2%) n (%): TEAE: Oedema NEC | TEAE: Oedema Peripheral | TEAE: Rash NOS | TEAE: Rashes, Eruptions and Exanthems NEC | TEAE: Seasonal Allergy
0 n (%): TEAE: Lactose Intolerance | TEAE: Lethargy | TEAE: Libido Decreased | TEAE: Menstruation Irregular* | TEAE: Mental Disorders NEC | TEAE: Mental Status Changes | TEAE: Motion Sickness | TEAE: Nail and Nail Bed Conditions (Excl Infections and Infestations) | TEAE: Ocular Disorders NEC | TEAE: Ocular Nerve and Muscle Disorders | TEAE: Oedema NOS | TEAE: Ovarian Cystadenofibroma* | TEAE: Ovarian Neoplasms Benign* | TEAE: Panic Attack | TEAE: Panic Symptoms | TEAE: Papulosquamous Conditions | TEAE: Partial Vision Loss | TEAE: Pelvic Pain NOS | TEAE: Penile Disorders NEC (Excl Erection and Ejaculation)* | TEAE: Penile Haemorrhage* | TEAE: Perception Disturbances | TEAE: Peripheral Embolism NOS | TEAE: Peripheral Embolism and Thrombosis | TEAE: Polydipsia | TEAE: Polyuria | TEAE: Posterior Capsule Opacification | TEAE: Postnasal Drip | TEAE: Premenopause* | TEAE: Psoriasis | TEAE: Psychotic Disorder NEC | TEAE: Psychotic Disorder NOS | TEAE: Rash Macular | TEAE: Sexual Desire Disorders | TEAE: Sick Sinus Syndrome | TEAE: Sinus Arrhythmia | TEAE: Skin Disorder NOS | TEAE: Skin Neoplasms Benign | TEAE: Skin Ulcer | TEAE: Skin and Subcutaneous Tissue Ulcerations | TEAE: Social Circumstances | TEAE: Strabismus | TEAE: Stress Symptoms | TEAE: Structural and Other Bile Duct Disorders | TEAE: Sugar Intolerance (Excl Glucose Intolerance) | TEAE: Suicidal Ideation | TEAE: Suicidal and Self-Injurious Behaviour | TEAE: Supraventricular Tachycardia | TEAE: Sweating Increased | TEAE: Swelling Face | TEAE: Tenderness NOS | TEAE: Thrombocytopenia | TEAE: Thrombocytopenias | TEAE: Thrombophlebitis Superficial | TEAE: Thyroid Neoplasms | TEAE: Thyroid Nodule | TEAE: Tympanic Membrane Disorder NOS | TEAE: Tympanic Membrane Disorders (Excl Infections) | TEAE: Urinary Tract Signs and Symptoms NEC | TEAE: Vascular Hypotensive Disorders | TEAE: Visual Acuity Reduced | TEAE: Vitreous Disorder NOS | TEAE: Vulvovaginal Dryness*
7 (3%) n (%): TEAE: Nasal Congestion and Inflammations
12 (5%) n (%): TEAE: Reproductive System and Breast Disorders
15 (6%) n (%): TEAE: Psychiatric Disorders
9 (4%) n (%): TEAE: Neoplasms Benign, Malignant and Unspecified (Incl Cysts and Polyps)
2 (1%) n (%): TEAE: Menstruation with Increased Bleeding* | TEAE: Uterine Disorders NEC* | TEAE: Uterine Neoplasms* | TEAE: Uterine Polyp NOS*
3 (1%) n (%): TEAE: Pharyngitis | TEAE: Pruritus NEC | TEAE: Pruritus NOS | TEAE: Renal Lithiasis | TEAE: Rhinitis Allergic NOS | TEAE: Rhinitis NOS | TEAE: Soft Tissue Neoplasms Benign NEC | TEAE: Upper Respiratory Tract Signs and Symptoms
28 (11%) n (%): TEAE: Respiratory, Thoracic and Mediastinal Disorders
1 (<1%) n (%): TEAE: Leiomyoma NOS | TEAE: Lid, Lash and Lacrimal Structural Disorders (Excl Congenital) | TEAE: Lipid Metabolism Disorder NOS | TEAE: Lipid Metabolism and Deposit Disorders NEC | TEAE: Lower Respiratory Tract Signs and Symptoms | TEAE: Lymphadenopathy | TEAE: Lymphangitis and Lymphatic Disorders NEC | TEAE: Meniere's Disease | TEAE: Menorrhagia* | TEAE: Menstruation and Uterine Bleeding NEC* | TEAE: Menstruation with Decreased Bleeding* | TEAE: Middle Ear Disorders NEC | TEAE: Myocardial Infarction | TEAE: Neoplasms Benign Site Unspecified NEC | TEAE: Normal Pregnancy, Labour and Delivery* | TEAE: Ovarian Cancer NOS* | TEAE: Ovarian Neoplasms Malignant (Excl Germ Cell)* | TEAE: Paranasal Sinus Hypersecretion | TEAE: Pregnancy NOS* | TEAE: Pregnancy, Puerperium and Perinatal Conditions | TEAE: Premenstrual Syndrome* | TEAE: Productive Cough | TEAE: Proteinuria | TEAE: Refractive Errors NOS | TEAE: Refractive and Accommodative Disorders | TEAE: Reproductive Tract Signs and Symptoms NEC | TEAE: Respiratory Tract Congestion | TEAE: Respiratory Tract Disorders NEC | TEAE: Retinal Detachment | TEAE: Retinal Structural Change, Deposit and Degeneration | TEAE: Rhinitis Seasonal | TEAE: Rosacea | TEAE: Rosaceas | TEAE: Skin Injuries and Mechanical Dermatoses | TEAE: Skin Lesion NOS | TEAE: Stress Incontinence | TEAE: Supraventricular Arrhythmias | TEAE: Surgical and Medical Procedures | TEAE: Tachycardia NOS | TEAE: Thyroid Disorders NEC | TEAE: Thyroid Hypofunction Disorders | TEAE: Tinnitus | TEAE: Total Fluid Volume Decreased | TEAE: Urinary Incontinence | TEAE: Urinary Retention | TEAE: Urinary Tract Lithiasis (Excl Renal) | TEAE: Urine Abnormal NOS | TEAE: Urticaria NOS | TEAE: Urticarias | TEAE: Uterine Fibroids* | TEAE: Uterine Neoplasms Benign* | TEAE: Vaginal Cyst* | TEAE: Vaginal Lesion* | TEAE: Ventricular Arrhythmias and Cardiac Arrest | TEAE: Ventricular Extrasystoles | TEAE: Vertigo | TEAE: Vulvovaginal Cysts and Neoplasms*
5 (2%) n (%): TEAE: Pain and Discomfort NEC | TEAE: Sinus Congestion | TEAE: Urinary Abnormalities
14 (5%) n (%): TEAE: Skin and Subcutaneous Tissue Disorders
8 (3%) n (%): TEAE: Vascular Hypertensive Disorders NEC
